Data published in US10508092B2, “Synthesis of novel analogs of diptoindonesin G, compounds formed thereby, and pharmaceutical compositions containing them” (Wisconsin Alumni Research Foundation, priority 2016, dated 2019).
“And” between values parts separate entries of the source, which are not always exact repeats. Equal values may be shown once.

Assays:
[1] = Maximum tolerated dose in mouse models; conditions: in vivo, five days out of seven
Method: Dip G was synthesized as described and formulated for the in vivo treatment. Dip G was prepared by dissolving the stock powder in 100% DMSO to a final concentration of 50 mg/ml. This stock solution was then diluted 1:5 into a 40% polyethylene glycol (PEG300)/40% normal saline (0.9% NaCl) solution to a final concentration of 20% Dip G solution. […] To determine MTD, escalating doses of Dip G dissolved in the aforementioned formulation were injected retro-orbitally or by oral gavage daily, five days out of seven to determine the MTD. […] (Data not shown.) Dip G was intra-tumorally delivered to ERα-positive T47D xenografted mice three times a week and the tumors were monitored for three weeks. […] (AST ELISAs are available commercially from several suppliers, including Abcam, Cambridge, Mass.)

T47D xenograft tumor = T47D xenograft tumor growth in mice, intra-tumoral dosing; format: in vivo, mouse
Method: Dip G inhibited growth of T47D xenograft tumor in vivo. Dip G was synthesized as described and formulated for the in vivo treatment. Dip G was prepared by dissolving the stock powder in 100% DMSO to a final concentration of 50 mg/ml. This stock solution was then diluted 1:5 into a 40% polyethylene glycol (PEG300)/40% normal saline (0.9% NaCl) solution to a final concentration of 20% Dip G solution. The maximum tolerated dose (MTD) of Dip G was determined to be 50 mg/kg by oral and 20 mg/kg by retro-orbital injection in mouse models. To determine MTD, escalating doses of Dip G dissolved in the aforementioned formulation were injected retro-orbitally or by oral gavage daily, five days out of seven to determine the MTD. […] (Data not shown.) Dip G was intra-tumorally delivered to ERα-positive T47D xenografted mice three times a week and the tumors were monitored for three weeks. […] Control-treated tumors were 70% of original size, while tumors (n=16) treated with Dip G were 46% of original size (FIG. 3). Under these treatment conditions, some Dip G-treated tumors completely regressed. […] (AST ELISAs are available commercially from several suppliers, including Abcam, Cambridge, Mass.)
Diptoindonesin G (Dip G) was obtained from the small molecule screening facility. Dip G was prepared by dissolving the stock powder in 100% DMSO to a final concentration of 50 mg/mL. This stock solution was then diluted 1:5 into a 40% polyethylene glycol (PEG 300)/40% normal saline (0.9% NaCl) solution to a final concentration of 20% Dip G solution. Vehicle was prepared identically, substituting DMSO instead of Dip G solution. PEG and saline were filtered at […] prior to use to ensure sterility.
Twelve Foxn1-nu homozygous mice were obtained from The Jackson Laboratory (Bar Harbor, Me.). Mice were randomized to control or active treatment prior to estrogen pellet placement. After allowing time for acclimatization, estrogen pellets were surgically inserted into the test mice, subcutaneously on the back. The skin at the site of surgery was prepared by washing with povidone iodine, allowing a three-minute contact time. Surgery was performed in a laminar flow hood while mice were under anesthesia. Incisions of less than 1 cm were made low in the back using a short scissors. Slow-release estrogen pellets (0.05 mg/60 day release) were implanted in each incision. Wounds were sealed with “VETBOND”®-brand surgical adhesive (3M Company, St. Paul, Minn.). At the same time, the mice were injected with 10^7 T-47D cells (ATCC HTB-133) twice, once in each mammary fat pad underneath the leg with 100 uL of fluid per injection site, using 25G needles.
Mice were monitored twice weekly for weight changes and tumor growth (measured in diameter and volume) with calipers. Following tumors reaching an appropriate size (˜5 mm in diameter, taking approximately 3 months after grafting), intra-tumoral injections were begun with vehicle containing 20 mg/kg of Dip G or control vehicle in a total volume of 50 μL split between tumors on each mammary fat pad. Three mice (6 tumors) received control injections and eight (16 tumors) received Dip G. Injections were administered 3 times per week with at least one day of rest between injections, for a total of 10-12 injections. Cohorts were sacrificed by cage individually in numerical order, beginning with the 10th injection and sacrificing one cage per injection for pharmacokinetic time points from that injection onward. In mice with very small tumors, dosing was switched from intra-tumoral to subcutaneous at later time points.

[2] = tested on: estrogen receptor β (ERβ); conditions: breast cancer, Zhao et al. 2015; cited from earlier work
[3] = tested on: estrogen receptor α (ERα); conditions: breast cancer, Zhao et al. 2015; cited from earlier work
ERα = ERα transcriptional activity in MCF7 cells; format: cell-based, human
CHIP ubiquitin E3 ligase = target: T1, CHIP ubiquitin E3 ligase (Homo sapiens, UniProt Q9UNE7); conditions: Zhao et al. 2015; cited from earlier work
T1 sequence (Q9UNE7 1-303): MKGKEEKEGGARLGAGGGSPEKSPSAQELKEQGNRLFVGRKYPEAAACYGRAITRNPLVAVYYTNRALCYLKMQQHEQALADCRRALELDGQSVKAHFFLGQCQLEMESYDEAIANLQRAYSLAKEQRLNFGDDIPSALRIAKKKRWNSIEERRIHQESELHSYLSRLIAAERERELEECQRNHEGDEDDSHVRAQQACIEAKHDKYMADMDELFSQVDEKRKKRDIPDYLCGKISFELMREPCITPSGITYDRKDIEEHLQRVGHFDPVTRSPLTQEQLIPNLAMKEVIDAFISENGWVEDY

[4] = individual tumor, 20 mg/kg intra-tumoral 3 times per week, 20 mg/kg

## O=C1c2c(O)cc(O)cc2-c2c(-c3ccc(O)cc3)oc3cc(O)cc1c23 [Dip G, diptoindonesin G]
[1]; oral gavage daily
  MTD: 50 mg/kg
[1]; other: retro-orbital injection, retro-orbital injection daily
  MTD: 20 mg/kg
T47D xenograft tumor; T47D xenograft, 20 mg/kg intra-tumoral 3 times per week, 21 days, n=16 tumors, control 70%
  tumor size as % of original size: 46%
T47D xenograft tumor; T47D xenograft, 12 of 16 tumors, control 17%, p=0.023
  responders (tumors decreasing by 50% or more): 75%
T47D xenograft tumor; T47D xenograft, 21 days, versus vehicle-treated controls
  xenografted tumor growth: strongly inhibited
T47D xenograft tumor; T47D xenograft, at study completion, n=16 tumors, control 30%
  decrease in tumor volume: 54%
T47D xenograft tumor; [4]
  Tumor Volumes, Day 3: 113.1 mm^3 and 29.8 mm^3 and 71.4 mm^3 and 25.7 mm^3 and 69.6 mm^3 and 17.2 mm^3 and 126.0 mm^3 and 79.8 mm^3 and 144.9 mm^3 and 40.7 mm^3 and 43.3 mm^3 and 70.7 mm^3 and 30.8 mm^3 and 15.1 mm^3 and 149.4 mm^3 and 68.9 mm^3
  Tumor Volumes, Day 5: 100.0 mm^3 and 34.7 mm^3 (2×) and 36.0 mm^3 and 58.8 mm^3 (2×) and 23.1 mm^3 and 108.0 mm^3 and 84.7 mm^3 and 152.5 mm^3 and 51.6 mm^3 and 44.0 mm^3 and 36.1 mm^3 and 18.9 mm^3 and 111.6 mm^3 and 87.7 mm^3
  Tumor Volumes, Day 8: 74.1 mm^3 and 20.0 mm^3 and 26.0 mm^3 and 14.5 mm^3 and 52.9 mm^3 and 14.0 mm^3 and 65.0 mm^3 and 55.0 mm^3 and 99.1 mm^3 and 32.8 mm^3 and 46.6 mm^3 and 55.2 mm^3 and 20.7 mm^3 and 21.8 mm^3 and 43.6 mm^3 and 40.3 mm^3
  Tumor Volumes, Day 10: 106.2 mm^3 and 73.0 mm^3 and 39.2 mm^3 and 37.6 mm^3 and 64.8 mm^3 and 28.1 mm^3 and 105.6 mm^3 and 95.3 mm^3 and 123.0 mm^3 and 49.0 mm^3 and 56.1 mm^3 and 58.2 mm^3 and 32.9 mm^3 and 44.5 mm^3 and 63.6 mm^3 and 67.7 mm^3
  Tumor Volumes, Day 12: 225.3 mm^3 and 33.6 mm^3 and 34.5 mm^3 and 18.5 mm^3 and 77.2 mm^3 and 13.9 mm^3 and 123.6 mm^3 and 0.5 mm^3 (2×) and 97.7 mm^3 and 48.7 mm^3 and 49.0 mm^3 and 63.6 mm^3 and 29.4 mm^3 and 23.1 mm^3 and 189.2 mm^3
  Tumor Volumes, Day 15: 81.6 mm^3 and 41.6 mm^3 and 35.3 mm^3 and 32.0 mm^3 and 78.0 mm^3 and 19.7 mm^3 and 72.5 mm^3 and 37.0 mm^3 and 62.5 mm^3 and 22.9 mm^3 and 35.4 mm^3 and 53.0 mm^3 and 22.0 mm^3 and 20.1 mm^3 and 92.5 mm^3 and 49.6 mm^3
  Tumor Volumes, Day 19: 91.9 mm^3 and 38.8 mm^3 and 12.0 mm^3 and 19.7 mm^3 and 45.6 mm^3 and 11.5 mm^3 and 58.8 mm^3 and 28.7 mm^3 and 90.9 mm^3 and 15.6 mm^3 and 24.6 mm^3 and 35.7 mm^3 (2×) and 14.9 mm^3 and 9.3 mm^3 and 58.2 mm^3
  Tumor Volumes, Day 23: 0.5 mm^3 and 12.2 mm^3 and 9.1 mm^3 and 29.7 mm^3 and 81.5 mm^3 and 10.3 mm^3 and 51.9 mm^3 and 13.1 mm^3 and 7.9 mm^3 and 9.5 mm^3 and 28.1 mm^3 and 29.8 mm^3 and 18.5 mm^3 and 10.1 mm^3 and 34.2 mm^3 and 14.9 mm^3
T47D xenograft tumor; individual tumor, baseline, T47D xenograft
  Tumor Volumes, Day 0: 75.1 mm^3 and 40.3 mm^3 and 39.7 mm^3 and 71.3 mm^3 (2×) and 50.8 mm^3 and 25.4 mm^3 and 80.2 mm^3 (2×) and 96.2 mm^3 and 24.9 mm^3 and 70.2 mm^3 and 29.6 mm^3 and 23.1 mm^3 and 47.1 mm^3 and 52.9 mm^3
[2]
  stability of ERβ: increases the stability
[3]
  stability of ERα: decreases the stability
ERα
  ERα transcriptional activity: decreases ERα transcriptional activity
CHIP ubiquitin E3 ligase
  target E3 ubiquitin ligase CHIP (STUB1): found to target
